Source: ChEMBL document CHEMBL5247642, “Structural Optimization of Fibroblast Growth Factor Receptor Inhibitors for Treating Solid Tumors” (J Med Chem, 2023)
Values after ≈ are worked out from the molar mass of the structure shown. Active and inactive are the calls of the source. The rule behind the calls is not given here.

Assays:
[1] = biological target: Fibroblast growth factor receptor 4 (Homo sapiens, UniProt P22455); assay: Inhibition of FGFR4 (unknown origin) using Poly (Glu,Tyr) 4:1 as substrate incubated for 60 mins in presence of ATP by ELISA analysis
Chain of Fibroblast growth factor receptor 4 (P22455 whole entry): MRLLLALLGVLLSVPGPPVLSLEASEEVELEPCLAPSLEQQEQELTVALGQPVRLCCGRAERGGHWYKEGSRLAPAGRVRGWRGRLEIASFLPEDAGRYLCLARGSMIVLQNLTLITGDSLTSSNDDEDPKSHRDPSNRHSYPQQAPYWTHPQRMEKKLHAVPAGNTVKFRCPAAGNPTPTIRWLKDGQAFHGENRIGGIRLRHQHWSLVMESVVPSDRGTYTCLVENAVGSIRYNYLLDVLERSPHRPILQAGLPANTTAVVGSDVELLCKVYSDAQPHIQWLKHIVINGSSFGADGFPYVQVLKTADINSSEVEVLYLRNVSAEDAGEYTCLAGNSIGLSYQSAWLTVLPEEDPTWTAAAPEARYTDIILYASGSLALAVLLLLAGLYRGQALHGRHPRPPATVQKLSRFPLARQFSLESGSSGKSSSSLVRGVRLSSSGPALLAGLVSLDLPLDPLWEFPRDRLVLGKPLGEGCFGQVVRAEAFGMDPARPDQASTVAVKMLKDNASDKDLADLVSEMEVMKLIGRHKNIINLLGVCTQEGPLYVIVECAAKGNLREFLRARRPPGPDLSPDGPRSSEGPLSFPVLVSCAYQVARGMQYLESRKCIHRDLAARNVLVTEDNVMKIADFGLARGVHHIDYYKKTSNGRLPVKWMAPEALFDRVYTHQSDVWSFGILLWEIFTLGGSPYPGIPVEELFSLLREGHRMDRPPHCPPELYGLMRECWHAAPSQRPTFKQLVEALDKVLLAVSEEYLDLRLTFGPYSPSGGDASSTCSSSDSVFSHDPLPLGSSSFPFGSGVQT

SNU-16 = assay: Antiproliferative activity against human SNU-16 cells assessed as reduction in cell viability measured for 72 hrs; format: functional, cell-based; conditions: SNU-16, 72 h
[2] = Solubility of compound in PBS at pH 7.4 at 1 to 100 microg/ml by laser nephelometry analysis; format: physicochemical; conditions: dose 1-100 µg/ml
[3] = biological target: T1, Fibroblast growth factor receptor (Homo sapiens) (UniProt P22607+P11362+P22455+P21802); assay: Inhibition of FGFR phosphorylation in human SNU-16 cells at 5 nM measured after 12 hrs; format: cell-based
T1 sequence (P11362 whole entry, looked up): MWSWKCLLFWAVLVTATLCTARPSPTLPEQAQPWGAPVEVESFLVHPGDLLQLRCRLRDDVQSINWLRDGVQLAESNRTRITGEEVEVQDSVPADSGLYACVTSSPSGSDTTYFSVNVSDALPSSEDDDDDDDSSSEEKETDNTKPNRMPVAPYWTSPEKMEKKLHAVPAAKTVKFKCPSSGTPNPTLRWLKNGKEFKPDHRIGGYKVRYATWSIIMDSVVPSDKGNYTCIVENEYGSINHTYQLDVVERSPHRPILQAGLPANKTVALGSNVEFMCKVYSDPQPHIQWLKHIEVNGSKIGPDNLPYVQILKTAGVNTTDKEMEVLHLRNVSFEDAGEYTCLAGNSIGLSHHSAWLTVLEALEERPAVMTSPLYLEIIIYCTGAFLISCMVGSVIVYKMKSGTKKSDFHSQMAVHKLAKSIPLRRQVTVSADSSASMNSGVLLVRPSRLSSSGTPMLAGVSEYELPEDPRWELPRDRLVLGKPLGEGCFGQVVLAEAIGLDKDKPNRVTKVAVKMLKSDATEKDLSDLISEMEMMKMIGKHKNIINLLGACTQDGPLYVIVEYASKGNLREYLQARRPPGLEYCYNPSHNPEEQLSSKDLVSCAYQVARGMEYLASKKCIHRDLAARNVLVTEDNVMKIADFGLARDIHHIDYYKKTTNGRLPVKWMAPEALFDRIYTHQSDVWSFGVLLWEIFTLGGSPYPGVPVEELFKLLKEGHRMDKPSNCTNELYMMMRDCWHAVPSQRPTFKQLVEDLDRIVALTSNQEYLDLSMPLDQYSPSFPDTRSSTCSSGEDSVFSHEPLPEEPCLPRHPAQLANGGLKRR
T1 sequence (P21802 whole entry, looked up): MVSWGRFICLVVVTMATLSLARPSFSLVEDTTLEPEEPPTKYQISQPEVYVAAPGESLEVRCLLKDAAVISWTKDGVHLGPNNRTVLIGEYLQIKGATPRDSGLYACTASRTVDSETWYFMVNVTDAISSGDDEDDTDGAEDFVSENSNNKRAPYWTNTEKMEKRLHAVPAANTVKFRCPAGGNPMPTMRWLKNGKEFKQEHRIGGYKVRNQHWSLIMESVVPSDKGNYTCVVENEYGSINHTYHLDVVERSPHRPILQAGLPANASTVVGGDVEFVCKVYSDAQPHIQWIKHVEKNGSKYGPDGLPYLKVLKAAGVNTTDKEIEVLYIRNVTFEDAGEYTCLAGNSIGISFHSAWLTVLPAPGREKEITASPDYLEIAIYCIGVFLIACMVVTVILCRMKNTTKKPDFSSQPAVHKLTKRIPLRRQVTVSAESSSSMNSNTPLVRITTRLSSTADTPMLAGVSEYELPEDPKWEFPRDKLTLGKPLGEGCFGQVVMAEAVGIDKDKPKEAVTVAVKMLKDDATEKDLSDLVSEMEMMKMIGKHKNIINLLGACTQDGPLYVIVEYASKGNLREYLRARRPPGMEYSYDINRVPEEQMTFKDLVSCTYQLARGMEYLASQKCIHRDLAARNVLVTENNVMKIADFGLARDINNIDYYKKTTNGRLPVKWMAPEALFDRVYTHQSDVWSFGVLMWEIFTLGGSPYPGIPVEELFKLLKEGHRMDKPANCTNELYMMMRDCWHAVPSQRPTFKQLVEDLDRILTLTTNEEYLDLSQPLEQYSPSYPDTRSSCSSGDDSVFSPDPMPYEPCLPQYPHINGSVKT
T1 sequence (P22455 whole entry, looked up): as the sequence (P22455 whole entry) above
T1 sequence (P22607 whole entry, looked up): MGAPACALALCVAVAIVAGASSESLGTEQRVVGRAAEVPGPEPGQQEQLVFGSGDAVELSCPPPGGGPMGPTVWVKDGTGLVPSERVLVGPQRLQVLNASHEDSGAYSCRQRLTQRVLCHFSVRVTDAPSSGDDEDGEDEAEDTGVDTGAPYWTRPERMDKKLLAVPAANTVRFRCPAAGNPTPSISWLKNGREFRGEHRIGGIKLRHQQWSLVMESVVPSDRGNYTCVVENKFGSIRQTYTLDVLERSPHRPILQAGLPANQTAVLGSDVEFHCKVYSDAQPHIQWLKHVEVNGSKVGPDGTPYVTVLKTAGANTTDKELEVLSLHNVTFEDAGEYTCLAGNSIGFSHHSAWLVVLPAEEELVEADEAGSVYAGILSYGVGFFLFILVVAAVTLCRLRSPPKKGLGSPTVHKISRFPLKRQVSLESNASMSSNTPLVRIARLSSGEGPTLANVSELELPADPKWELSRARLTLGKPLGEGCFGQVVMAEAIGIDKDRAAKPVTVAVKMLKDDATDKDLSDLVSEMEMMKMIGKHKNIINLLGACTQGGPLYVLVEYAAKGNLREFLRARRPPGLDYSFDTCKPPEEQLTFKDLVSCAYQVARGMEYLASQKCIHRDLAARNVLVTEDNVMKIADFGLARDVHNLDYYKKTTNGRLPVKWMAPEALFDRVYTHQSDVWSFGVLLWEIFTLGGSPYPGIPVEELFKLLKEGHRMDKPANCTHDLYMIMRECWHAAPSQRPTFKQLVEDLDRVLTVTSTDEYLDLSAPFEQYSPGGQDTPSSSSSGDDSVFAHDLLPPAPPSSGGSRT

[4] = biological target: T1, Fibroblast growth factor receptor (Homo sapiens); assay: Inhibition of FGFR phosphorylation in human SNU-16 cells at 5 nM measured after 24 hrs; format: cell-based
[5] = biological target: Voltage-gated inwardly rectifying potassium channel KCNH2 (Homo sapiens, UniProt Q12809); assay: Inhibition of hERG expressed in CHO cells at -80 mV holding potential by automated patch clamp method; format: toxicity, cell-based
[6] = biological target: Vascular endothelial growth factor receptor 1 (Homo sapiens) (UniProt P17948); assay: Inhibition of VEGFR1 (unknown origin) at 1 uM using Poly (Glu,Tyr) 4:1 as substrate incubated for 60 mins in presence of ATP by ELISA analysis relative to control
[7] = biological target: Vascular endothelial growth factor receptor 2 (Homo sapiens) (UniProt P35968); assay: Inhibition of VEGFR2 (unknown origin) at 1 uM using Poly (Glu,Tyr) 4:1 as substrate incubated for 60 mins in presence of ATP by ELISA analysis relative to control
Chain of Vascular endothelial growth factor receptor 2 (Homo sapiens) (P35968 whole entry, the tested form may be a part): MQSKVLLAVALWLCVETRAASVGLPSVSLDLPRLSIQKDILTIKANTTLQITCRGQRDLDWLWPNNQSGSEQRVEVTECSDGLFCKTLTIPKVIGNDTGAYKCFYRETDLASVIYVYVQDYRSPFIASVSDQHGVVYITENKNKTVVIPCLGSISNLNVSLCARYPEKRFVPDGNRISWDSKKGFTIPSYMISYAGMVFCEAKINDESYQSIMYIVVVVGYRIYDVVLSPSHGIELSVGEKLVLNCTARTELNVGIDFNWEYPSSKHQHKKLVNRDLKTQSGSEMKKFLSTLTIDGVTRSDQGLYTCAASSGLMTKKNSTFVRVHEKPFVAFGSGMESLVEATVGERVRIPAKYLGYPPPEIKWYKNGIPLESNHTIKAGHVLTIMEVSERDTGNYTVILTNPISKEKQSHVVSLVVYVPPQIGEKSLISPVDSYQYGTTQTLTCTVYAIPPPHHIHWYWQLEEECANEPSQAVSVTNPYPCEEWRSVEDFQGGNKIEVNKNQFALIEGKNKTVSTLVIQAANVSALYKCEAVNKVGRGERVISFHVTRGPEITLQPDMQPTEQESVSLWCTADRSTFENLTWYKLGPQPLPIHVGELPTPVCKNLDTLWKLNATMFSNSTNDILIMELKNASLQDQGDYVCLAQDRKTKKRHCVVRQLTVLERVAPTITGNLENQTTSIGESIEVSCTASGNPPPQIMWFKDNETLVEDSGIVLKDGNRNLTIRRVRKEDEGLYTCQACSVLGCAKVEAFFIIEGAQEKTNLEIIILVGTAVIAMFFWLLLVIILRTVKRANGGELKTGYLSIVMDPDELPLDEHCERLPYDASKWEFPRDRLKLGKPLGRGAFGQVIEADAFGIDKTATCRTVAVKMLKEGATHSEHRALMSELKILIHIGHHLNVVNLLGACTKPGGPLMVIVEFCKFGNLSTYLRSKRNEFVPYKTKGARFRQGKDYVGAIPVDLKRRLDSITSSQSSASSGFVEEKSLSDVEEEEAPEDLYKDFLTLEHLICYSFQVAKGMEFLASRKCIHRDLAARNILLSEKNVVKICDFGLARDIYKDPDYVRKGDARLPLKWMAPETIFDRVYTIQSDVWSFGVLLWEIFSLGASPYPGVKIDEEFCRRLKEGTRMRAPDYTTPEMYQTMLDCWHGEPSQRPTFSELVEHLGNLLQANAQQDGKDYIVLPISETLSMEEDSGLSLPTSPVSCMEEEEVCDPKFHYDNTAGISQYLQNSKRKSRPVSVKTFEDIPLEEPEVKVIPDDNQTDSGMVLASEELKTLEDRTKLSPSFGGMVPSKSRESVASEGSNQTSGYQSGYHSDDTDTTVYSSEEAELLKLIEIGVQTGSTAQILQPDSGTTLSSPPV

[8] = biological target: Fibroblast growth factor receptor 1 (Homo sapiens, UniProt P11362, V561M); assay: Inhibition of human recombinant FGFR1 V561M mutant (456 to 765 residues) using GGEEEEYFELVKK as substrate incubated for 40 mins presence of [gamma-33P]-ATP by radiometric based scintillation counter assay
NCI-H1581 [9] = assay: Antiproliferative activity against human NCI-H1581 cells expressing FGFR1 assessed as reduction in cell viability measured after 72 hrs; format: functional, cell-based; conditions: NCI-H1581, 72 h
OPM-2 = assay: Antiproliferative activity against human OPM-2 cells expressing FGFR3 assessed as reduction in cell viability measured after 72 hrs; format: functional, cell-based; conditions: OPM-2, 72 h
NCI-H522 = assay: Antiproliferative activity against human NCI-H522 cells assessed as reduction in cell viability measured after 72 hrs; format: functional, cell-based; conditions: NCI-H522, 72 h
PC-9 = assay: Antiproliferative activity against human PC-9 cells assessed as reduction in cell viability measured after 72 hrs; format: functional, cell-based; conditions: PC-9, 72 h
NCI-H2228 = assay: Antiproliferative activity against human NCI-H2228 cells assessed as reduction in cell viability measured after 72 hrs; format: functional, cell-based; conditions: NCI-H2228, 72 h
NCI-H1666 = assay: Antiproliferative activity against human NCI-H1666 cells assessed as reduction in cell viability measured after 72 hrs; format: functional, cell-based; conditions: NCI-H1666, 72 h
NCI-H526 = assay: Antiproliferative activity against human NCI-H526 cells assessed as reduction in cell viability measured after 72 hrs; format: functional, cell-based; conditions: NCI-H526, 72 h
HCC4006 = assay: Antiproliferative activity against human HCC4006 cells assessed as reduction in cell viability measured after 72 hrs; format: functional, cell-based; conditions: HCC4006, 72 h
PANC-1 = assay: Antiproliferative activity against human PANC-1 cells assessed as reduction in cell viability measured after 72 hrs; format: functional, cell-based; conditions: PANC-1, 72 h
Hs746T = assay: Antiproliferative activity against human Hs746T cells assessed as reduction in cell viability measured after 72 hrs; format: functional, cell-based
CAPAN-1 = assay: Antiproliferative activity against human CAPAN-1 cells assessed as reduction in cell viability measured after 72 hrs; format: functional, cell-based; conditions: CAPAN-1, 72 h
BXPC-3 = assay: Antiproliferative activity against human BXPC-3 cells assessed as reduction in cell viability measured after 72 hrs; format: functional, cell-based; conditions: BXPC-3, 72 h
EBC-1 = assay: Antiproliferative activity against human EBC-1 cells assessed as reduction in cell viability measured after 72 hrs; format: functional, cell-based; conditions: EBC-1, 72 h
A549 = assay: Antiproliferative activity against human A549 cells assessed as reduction in cell viability measured after 72 hrs; format: functional, cell-based; conditions: A549, 72 h
NCI-H441 = assay: Antiproliferative activity against human NCI-H441 cells assessed as reduction in cell viability measured after 72 hrs; format: functional, cell-based; conditions: NCI-H441, 72 h
NCI-H3122 = assay: Antiproliferative activity against human NCI-H3122 cells assessed as reduction in cell viability measured after 72 hrs; format: functional, cell-based; conditions: NCI-H3122, 72 h
NCI-H1299 = assay: Antiproliferative activity against human NCI-H1299 cells assessed as reduction in cell viability measured after 72 hrs; format: functional, cell-based; conditions: NCI-H1299, 72 h
NCI-H520 = assay: Antiproliferative activity against human NCI-H520 cells assessed as reduction in cell viability measured after 72 hrs; format: functional, cell-based; conditions: NCI-H520, 72 h
[10] = AUC (0 to t) in CD-1 mouse at 3 mg/kg, po measured after 24 hrs by LC-MS/MS analysis; format: ADME, organism-based; set-up: time 24 hrs, dose 3 mg/kg, route po; conditions: in vivo
[11] = AUC (0 to t) in CD-1 mouse at 1 mg/kg, iv measured after 24 hrs by LC-MS/MS analysis; format: ADME, organism-based; set-up: time 24 hrs, dose 1 mg/kg, route iv; conditions: in vivo
[12] = AUC (0 to infinity) in CD-1 mouse at 3 mg/kg, po measured after 24 hrs by LC-MS/MS analysis; format: ADME, organism-based; set-up: time 24 hrs, dose 3 mg/kg, route po; conditions: in vivo
[13] = AUC (0 to infinity) in CD-1 mouse at 1 mg/kg, iv measured after 24 hrs by LC-MS/MS analysis; format: ADME, organism-based; set-up: dose 1 mg/kg, time 24 hrs, route iv; conditions: in vivo
[14] = MRT in CD-1 mouse at 3 mg/kg, po measured after 24 hrs by LC-MS/MS analysis; format: ADME, organism-based; conditions: in vivo
[15] = Half life in CD-1 mouse at 3 mg/kg, po measured after 24 hrs by LC-MS/MS analysis; format: ADME, organism-based; conditions: in vivo
[16] = Oral bioavailability in CD-1 mouse at 3 mg/kg measured after 24 hrs by LC-MS/MS analysis; format: ADME, organism-based; conditions: in vivo
NCI-H1581 [17] = assay: Antitumor activity against human NCI-H1581 cells xenografted in po dosed nude mouse assessed as tumor growth inhibition administered once daily for 11 days by microcaliper analysis; format: functional, organism-based; conditions: dose 200-400 mg/kg, time 11.0 day
NCI-H1581 [18] = assay: Antitumor activity against human NCI-H1581 cells xenografted in nude mouse assessed as tumor growth inhibition at 400 mg/kg, po administered once daily for 11 days by microcaliper analysis; format: functional, organism-based; conditions: time 11.0 day
NCI-H716 = assay: Antitumor activity against human NCI-H716 cells xenografted in nude mouse assessed as tumor growth inhibition at 400 mg/kg, po administered once daily for 18 days by microcaliper analysis; format: functional, organism-based; conditions: time 18.0 day
[19] = Toxicity in nude mouse xenografted with human SNU-16 cells assessed as body weight loss at 200 to 400 mg/kg, po administered once daily for 21 days; format: organism-based; conditions: in vivo, 504 h, dose 200-400 mg/kg, time 21 day

Q: Which IC50 [1] does the source give for C=CC(=O)N1CCCC(n2nc3c(=O)[nH]nc(N)c3c2-c2oc3ccc(C)cc3c2C)C1 (stereo not drawn) here?
A: 0.155 µM

Q: What about the IC50 (SNU-16) of the same compound?
A: 0.0012 µM

Q: What about the solubility kinetic [2] of the same compound?
A: 50 µg/mL (≈ 116 µM)

Q: What about the inhibition [3] of the same compound?
A: Active

Q: What about the inhibition [4] of the same compound?
A: Active

Q: What about the IC50 [5] of the same compound?
A: 17.2 µM

Q: And the inhibition [6]?
A: < 50%

Q: What about the inhibition [7] of the same compound?
A: < 50%

Q: And the IC50 [8]?
A: > 5 µM

Q: And the IC50 (NCI-H1581 [9])?
A: 0.0549 µM

Q: What about the IC50 (OPM-2) of the same compound?
A: 0.299 µM

Q: What about the IC50 (NCI-H522) of the same compound?
A: > 10 µM

Q: What about the IC50 (PC-9) of the same compound?
A: > 10 µM

Q: What about the IC50 (NCI-H2228) of the same compound?
A: > 10 µM

Q: And the IC50 (NCI-H1666)?
A: > 10 µM

Q: And the IC50 (NCI-H526)?
A: > 10 µM

Q: What about the IC50 (HCC4006) of the same compound?
A: > 10 µM

Q: What about the IC50 (PANC-1) of the same compound?
A: > 10 µM

Q: What about the IC50 (Hs746T) of the same compound?
A: > 10 µM

Q: And the IC50 (CAPAN-1)?
A: > 10 µM

Q: And the IC50 (BXPC-3)?
A: > 10 µM

Q: And the IC50 (EBC-1)?
A: > 10 µM

Q: What about the IC50 (A549) of the same compound?
A: > 10 µM

Q: What about the IC50 (NCI-H441) of the same compound?
A: > 10 µM

Q: What about the IC50 (NCI-H3122) of the same compound?
A: > 10 µM

Q: And the IC50 (NCI-H1299)?
A: > 10 µM

Q: What about the IC50 (NCI-H520) of the same compound?
A: > 10 µM

Q: And the AUC(0-t) at 24 h [10]?
A: 70.2 ng·h/mL

Q: And the AUC(0-t) at 24 h [11]?
A: 115 ng·h/mL

Q: What about the AUC(0-inf) [12] of the same compound?
A: 75.4 ng·h/mL

Q: And the AUC [13]?
A: 116 ng·h/mL

Q: And the MRT [14]?
A: 1.16 h

Q: What about the half-life [15] of the same compound?
A: 0.932 h

Q: And the bioavailability [16]?
A: 20.4%

Q: What about the Activity (NCI-H1581 [17]) of the same compound?
A: Dose-Dependent Effect

Q: What about the Activity (NCI-H1581 [18]) of the same compound?
A: Active

Q: What about the Activity (NCI-H716) of the same compound?
A: Active

Q: What about the Activity [19] of the same compound?
A: Non-Toxic
